The nature of the series: Human intestinal S9 fraction in vitro stability assay (HInt). In kind it is in vitro ADME. To be noted: human intestinal S9 0.1 mg/mL, 1 μM test compound, pH 7.4, 37° C., substrate depletion. An excerpt: In particular, the human intestinal S9 fraction in vitro stability assay (HInt) and human hepatocyte in vitro liver metabolism assay (HHep) provide important information regarding the clearance and metabolic activation of these compounds. The human intestinal S9 fraction in vitro stability assay provides a surrogate measure of compound metabolism as it travels across the gut wall; compounds with low CLint values more likely to enter the portal vein and be exposed to the liver. Likewise, the human hepatocyte in vitro liver metabolism assay provides a surrogate measure of compound metabolism when exposed to liver; compounds with high CLint values are more likely to be metabolically activated. For compounds such as prodrugs that release an active species on metabolic activation, high CLint values in human hepatocytes are desirable. Active compounds released in this way inhibit PCSK9 and show improved atherosclerotic properties by increased exposure of the active metabolite in the liver.
Human Intestinal S9 Fraction In Vitro Stability Assay (Hint)
In vitro stability of test compounds in human intestinal S9 fraction was determined by a substrate depletion approach. Frozen PMSF-free human intestinal S9 (BD Gentest) was thawed on wet ice and diluted to the test concentration of 0.1 mg/mL in 100 mM potassium phosphate buffer pH 7.4. Aliquots of diluted intestinal S9 (495 μL, n=2) were added to tubes in a dry heat bath and pre-warmed for 5 min at 37° C. Test compounds were dissolved in DMSO at 30 mM, ordered from the TekCel at 10 mM, and further diluted to 0.1 mM in DMSO. To initiate the reaction, 5 μL of 0.1 mM DMSO stock solution was added to the pre-warmed intestinal S9. The final test compound concentration in the incubation was 1 μM. At each time point (0.25, 5, 10, 20, 40, and 60 min) a 50 μL sample of incubate was removed and transferred to a plate containing 200 μL acetonitrile with internal standard (2 ng/mL terfenadine). After collection of the final time point, sample plates were capped, vortexed, and centrifuged for 5 minutes at approximately 2000×g. 150 μL of supernatant was removed and transferred to a clean storage plate for direct LC-MS/MS analysis. LC-MS/MS analysis was conducted on a Triple Quad 5500 (AB Sciex) with two LC-20AD pumps and CBM-20 controller (Shimadzu) and CTC PAL autosampler (LEAP Technologies). The MS was operated in multiple reaction monitoring mode with simultaneous monitoring for test compound and internal standard. 5 μL of sample was injected on a Kinetex C18 30×2.1 mm column (Phenomenex) and eluted at 0.5 ml/min under the following conditions, where solvent A was water containing 0.1% formic acid and solvent B was acetonitrile containing 0.1% formic acid: hold initial conditions 90% A and 10% B for 0.8 min, ramp to 30% A and 70% B over 1 min, step to 5% A and 95% B over 0.05 min, hold at 5% A and 95% B for 0.15 min, return to initial conditions over 0.1 min, and hold for 0.4 min. Peak areas of test compound and internal standard were quantitated using Analyst 1.5 (AB Sciex) and the ratios of test compound peak area to internal standard peak area (area ratio) were calculated. The natural log of area ratio was plotted versus time and the portion of the curve representing the initial linear rate of test compound depletion was fit using linear regression (IDBS E-Workbook 9.4). The slope of this line was converted to half-life (t1/2=−LN2/slope). Half-life was used to calculate intrinsic apparent clearance (CLint=LN2/(t1/2*(mg protein/ml incubation))).

Regarding `CCOC(=O)O[C@@H](C)n1nnnc1-c1c(-c2ccc(C(=O)N(c3ncccc3C)[C@@H]3CCCNC3)cc2F)cnn1C` [Example 8, ethyl (S)-1-{5-[4-(4-{(3-methylpyridin-2-yl)[(3R)-piperidin-3-yl]carbamoyl}-2-fluorophenyl)-1-methyl-1H-pyrazol-5-yl]-1H-tetrazol-1-yl}ethyl carbonate], the microsomal CLint (as a rule, a measure of how fast metabolising enzymes remove a compound, apart from limits set by blood flow) at 1 μM came to 116 µL/min/mg.

The molecule `CCOC(=O)O[C@@H](C)n1nnnc1-c1c(-c2ccc(C(=O)N(c3ncccc3C)[C@@H]3CCCNC3)cc2)cnn1C` [Example 5a, ethyl (S)-1-{5-[1-methyl-4-(4-{(3-methylpyridin-2-yl)[(3R)-piperidin-3-yl]carbamoyl}phenyl)-1H-pyrazol-5-yl]-1H-tetrazol-1-yl}ethyl carbonate] returned a microsomal CLint at 1 μM below 57.8 µL/min/mg.

Molecule `CCOC(=O)O[C@H](C)n1nnnc1-c1c(-c2ccc(C(=O)N(c3ncccc3Cl)[C@@H]3CCCNC3)cc2F)cnn1C` [Example 11, ethyl (R)-1-{5-[4-(4-{(3-chloropyridin-2-yl)[(3R)-piperidin-3-yl]carbamoyl}-2-fluorophenyl)-1-methyl-1H-pyrazol-5-yl]-1H-tetrazol-1-yl}ethyl carbonate] registered a microsomal CLint at 1 μM of 620 µL/min/mg.

As for `CCOC(=O)O[C@@H](C)n1nnnc1-c1c(-c2ccc(C(=O)N(c3ncccc3Cl)[C@@H]3CCCNC3)nc2)cnn1C` [Example 10, ethyl (S)-1-{5-[4-(6-{(3-chloropyridin-2-yl)[(3R)-piperidin-3-yl]carbamoyl}pyridin-3-yl)-1-methyl-1H-pyrazol-5-yl]-1H-tetrazol-1-yl}ethyl carbonate], the microsomal CLint at 1 μM is below 57.8 µL/min/mg.

In turn, `CCOC(=O)O[C@H](C)n1nnnc1-c1c(-c2ccc(C(=O)N(c3ncccc3C)[C@@H]3CCCNC3)cc2)cnn1C` [Example 5b, ethyl (R)-1-{5-[1-methyl-4-(4-{(3-methylpyridin-2-yl)[(3R)-piperidin-3-yl]carbamoyl}phenyl)-1H-pyrazol-5-yl]-1H-tetrazol-1-yl}ethyl carbonate] returned a microsomal CLint at 1 μM of 86.9 µL/min/mg.

In turn, `CCOC(=O)O[C@@H](C)n1nnnc1-c1c(-c2ccc(C(=O)N(c3ncccc3Cl)[C@@H]3CCCNC3)cc2F)cnn1C` [Example 7, ethyl (S)-1-{5-[4-(4-{(3-chloropyridin-2-yl)[(3R)-piperidin-3-yl]carbamoyl}-2-fluorophenyl)-1-methyl-1H-pyrazol-5-yl]-1H-tetrazol-1-yl}ethyl carbonate] returned a microsomal CLint at 1 μM below 82.9 µL/min/mg.

The molecule `CCOC(=O)O[C@@H](C)n1nnnc1-c1c(-c2ccc(C(=O)N(c3ncccc3C)[C@@H]3CCCNC3)nc2)cnn1C` [Example 9, ethyl (S)-1-{5-[1-methyl-4-(6-{(3-methylpyridin-2-yl)[(3R)-piperidin-3-yl]carbamoyl}pyridin-3-yl)-1H-pyrazol-5-yl]-1H-tetrazol-1-yl}ethyl carbonate] displayed a microsomal CLint at 1 μM below 57.8 µL/min/mg.

Molecule `CCOC(=O)O[C@@H](C)n1nnnc1-c1c(-c2ccc(C(=O)N(c3ncccc3Cl)[C@@H]3CCCNC3)cc2)cnn1C` [Example 6, ethyl (S)-1-{5-[1-methyl-4-(4-{(3-chloropyridin-2-yl)[(3R)-piperidin-3-yl]carbamoyl}phenyl)-1H-pyrazol-5-yl]-1H-tetrazol-1-yl}ethyl carbonate] yielded a microsomal CLint at 1 μM below 57.8 µL/min/mg.
